IC50 and EC50 data for 27 compounds are collected here from patent US11976072B2, “Diacylglycerol kinase modulating compounds” (priority 2021, dated 2024).

Read-outs that look alike come from different tables or passages of the source.

As a reminder, the IC50 is the point on the concentration scale where inhibition reaches its midpoint. Broadly, the EC50 is the concentration giving half of the maximal effect.

The target in test [1] is human DGKα (Homo sapiens, UniProt P23743). Description: DGKα Biochemical Activity Assay (ADP-Glo).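 Note: luminescent detection of ADP produced as DGKα phosphorylates DAG to phosphatidic acid, IC50 from four-parameter nonlinear curve fit.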 As to conditions: recombinant DGKα 1 nM, 100 μM ATP, 18:1 DAG/POPS/octylglucoside micelles, 1 hour at 25° C.; geometric mean; read-out: HTBS DGKa 1X ATP KM IC50. (ADP-Glo turns the ADP formed in a reaction into a luminescent signal.)
Sequence of human DGKα (P23743 whole entry): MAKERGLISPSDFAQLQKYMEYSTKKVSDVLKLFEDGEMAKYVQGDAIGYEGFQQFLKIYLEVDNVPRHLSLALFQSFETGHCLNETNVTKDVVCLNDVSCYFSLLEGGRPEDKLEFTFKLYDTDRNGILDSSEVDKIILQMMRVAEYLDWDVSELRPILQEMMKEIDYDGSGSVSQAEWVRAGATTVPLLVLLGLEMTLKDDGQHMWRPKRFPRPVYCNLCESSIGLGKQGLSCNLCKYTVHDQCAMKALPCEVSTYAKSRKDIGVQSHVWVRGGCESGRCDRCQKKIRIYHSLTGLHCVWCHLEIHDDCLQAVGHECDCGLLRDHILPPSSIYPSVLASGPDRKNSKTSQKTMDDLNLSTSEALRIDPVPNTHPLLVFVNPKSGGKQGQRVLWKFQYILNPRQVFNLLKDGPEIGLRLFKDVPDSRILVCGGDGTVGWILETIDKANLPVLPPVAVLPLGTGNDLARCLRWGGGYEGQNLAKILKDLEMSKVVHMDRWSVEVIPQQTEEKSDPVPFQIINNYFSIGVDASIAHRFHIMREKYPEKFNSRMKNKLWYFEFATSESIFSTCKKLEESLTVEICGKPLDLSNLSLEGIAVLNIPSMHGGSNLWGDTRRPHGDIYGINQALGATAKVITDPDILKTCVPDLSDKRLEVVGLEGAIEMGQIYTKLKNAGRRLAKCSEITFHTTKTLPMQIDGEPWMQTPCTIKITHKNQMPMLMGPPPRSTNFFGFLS
Test [2] relates to Jurkat NFκB-luciferase cells. The experiment in a line: Jurkat NFκB-Luciferase Assay. It is filed as cell-based. As to conditions: Homo sapiens. In outline:
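Luminescence from One-Glo Ex, read 7 min post-addition, reports NFκB activation in Jurkat luciferase reporter cells. Cells, diluted to 1 million cells/ml in 10% FBS RPMI, were dispensed onto plates holding compound and washed, pre-bound antibody.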

Where [3] appears, read: Jurkat NFκB-luciferase cells activated with anti-CD3 antibody (OKT3), 2.5 hrs at 37° C., geometric mean, read-out: DGK NFKb Luciferase EC50.
Where [4] appears, read: Jurkat, […], read-out: DGK NFKb Luciferase EC50 (nM).

As to `Cc1nnc2nc(N3CCOCc4c(C#CC5(C)CC5)cccc43)c3c(F)c(F)ccc3n12` [Example 196, 1-(6,7-Difluoro-1-methyl-[1,2,4]triazolo[4,3-a]quinazolin-5-yl)-6-((1-methylcyclopropyl)ethynyl)-1,2,3,5-tetrahydrobenzo[e][1,4]oxazepine], the IC50 in test [1] stood at 2.49 nM. For the same compound, the EC50 in test [2] (setting [3]) was found to be 0.545 nM.
The corresponding values for `Cc1nnc2nc(N3CCCc4c(C#CC5(O)CCC6(CC5)CC6)cccc43)c3c(F)cccc3n12` [Example 197] are 11 nM and 1.38 nM.
In the case of `Cc1nnc2nc(N3CCCc4c(C#CC5(O)CC6CC(C6)C5)cccc43)c3c(F)cccc3n12` (stereo not drawn) [Example 198, 3-((1-(6-fluoro-1-methyl-[1,2,4]triazolo[4,3-a]quinazolin-5-yl)-1,2,3,4-tetrahydroquinolin-5-yl)ethynyl)bicyclo[3.1.1]heptan-3-ol], in test [1], the concentration for half-maximal inhibition (IC50) is 10.8 nM. Moreover, the EC50 in test [2] (setting [4]) stood at 0.508 nM.
For `Cc1nnc2nc(N3CCCc4c(C#CC5(O)C[C@H]6C[C@H]6C5)cccc43)c3c(F)cccc3n12` (stereo partly drawn) [Example 199, (1R,5S)-3-((1-(6-fluoro-1-methyl-[1,2,4]triazolo[4,3-a]quinazolin-5-yl)-1,2,3,4-tetrahydroquinolin-5-yl)ethynyl)bicyclo[3.1.0]hexan-3-ol], in test [1], the 50% inhibitory concentration (IC50) is 3.83 nM. Besides, in test [2] (setting [4]), the EC50 was 1.62 nM.
Take `Cc1nnc2nc(N3CCOCc4c(C#CC5(C(C)(F)F)CC5)cccc43)c3c(F)c(F)ccc3n12` [Example 200, 6-[2-[1-(1,1-Difluoroethyl)cyclopropyl]ethynyl]-1-(6,7-difluoro-1-methyl-[1,2,4]triazolo[4,3-a]quinazolin-5-yl)-3,5-dihydro-2H-4,1-benzoxazepine]: the IC50 in test [1] came to 5.18 nM. Besides, the EC50 in test [2] (setting [3]) was 0.858 nM.
For the compound `CC(F)(F)C1(C#Cc2cccc3c2COCCN3c2nc3nncn3c3ccc(F)c(F)c23)CC1` [Example 201, 6-[2-[1-(1,1-Difluoroethyl)cyclopropyl]ethynyl]-1-(6,7-difluoro-[1,2,4]triazolo[4,3-a]quinazolin-5-yl)-3,5-dihydro-2H-4,1-benzoxazepine], the IC50 in test [1] is 6.77 nM. For the same compound, the EC50 in test [2] (setting [3]) worked out at 0.202 nM.
In the case of `OC1(C#Cc2cccc3c2CCCN3c2nc3nncn3c3cccc(F)c23)CCCCC1` [Example 202, 1-((1-(6-Fluoro-[1,2,4]triazolo[4,3-a]quinazolin-5-yl)-1,2,3,4-tetrahydroquinolin-5-yl)ethynyl)cyclohexan-1-ol], the IC50 in test [1] came out at 3.88 nM. Besides, the concentration for a half-maximal effect (EC50) in test [2] (setting [4]) worked out at 2.04 nM.
As to `Fc1ccc2c(c(N3CCOCc4c(C#CC5(C(F)(F)F)CC5)cccc43)nc3nncn32)c1F` [Example 203, 1-(6,7-Difluoro-[1,2,4]triazolo[4,3-a]quinazolin-5-yl)-6-[2-[1-(trifluoromethyl)cyclopropyl]ethynyl]-3,5-dihydro-2H-4,1-benzoxazepine], the IC50 in test [1] amounted to 2.1 nM. Moreover, the EC50 in test [2] (setting [3]) was 0.307 nM.
The corresponding values for `CC(C)(C#Cc1cccc2c1COCCN2c1nc2nncn2c2ccc(F)c(F)c12)C(F)(F)F` [Example 204, 1-(6,7-Difluoro-[1,2,4]triazolo[4,3-a]quinazolin-5-yl)-6-(4,4,4-trifluoro-3,3-dimethyl-but-1-ynyl)-3,5-dihydro-2H-4,1-benzoxazepine] are 3.83 nM and 0.121 nM.
The corresponding values for `Cc1nnc2nc(N3CCCc4c(C#CC5(O)CCCC5)cccc43)c3c(F)cccc3n12` [Example 205, 1-((1-(6-fluoro-1-methyl-[1,2,4]triazolo[4,3-a]quinazolin-5-yl)-1,2,3,4-tetrahydroquinolin-5-yl)ethynyl)cyclopentan-1-ol] are 13.9 nM and 16.6 nM.
As to `Cc1nnc2nc(N3CCCc4c(C#CC5(O)CCCCC5)cccc43)c3c(F)cccc3n12` [Example 206, 1-((1-(6-fluoro-1-methyl-[1,2,4]triazolo[4,3-a]quinazolin-5-yl)-1,2,3,4-tetrahydroquinolin-5-yl)ethynyl)cyclohexan-1-ol], in test [1], the IC50 came out at 13.5 nM. In test [2] (setting [4]), the EC50 stood at 5.07 nM.
As to `Cc1nnc2nc(N3CCOCc4c(C#CC(C)(C)C(F)(F)F)cccc43)c3c(F)c(F)ccc3n12` [Example 207, 1-(6,7-Difluoro-1-methyl-[1,2,4]triazolo[4,3-a]quinazolin-5-yl)-6-(4,4,4-trifluoro-3,3-dimethyl-but-1-ynyl)-3,5-dihydro-2H-4,1-benzoxazepine], the IC50 in test [1] stood at 14.9 nM. Besides, the concentration giving a half-maximal response (EC50) in test [2] (setting [3]) is 4.04 nM.
In the case of `CC(F)(F)C1(C#Cc2cccc3c2CCCCN3c2nc3nncn3c3ccc(F)c(F)c23)CC1` [Example 208, 5-(6-((1-(1,1-Difluoroethyl)cyclopropyl)ethynyl)-2,3,4,5-tetrahydro-1H-benzo[b]azepin-1-yl)-6,7-difluoro-[1,2,4]triazolo[4,3-a]quinazoline], the IC50 in test [1] is 18.7 nM. Also, the concentration for a half-maximal effect (EC50) in test [2] (setting [3]) worked out at 0.815 nM.
For `OC1(C#Cc2cccc3c2CCCN3c2nc3nncn3c3ccc(F)c(F)c23)CCCCC1` [Example 209, 1-[2-[1-(6,7-Difluoro-[1,2,4]triazolo[4,3-a]quinazolin-5-yl)-3,4-dihydro-2H-quinolin-5-yl]ethynyl]cyclohexanol], in test [1], the IC50 was 2.19 nM. Moreover, the EC50 in test [2] (setting [4]) was found to be 1.17 nM.
For `Cc1nnc2nc(N3CCOCc4c(C#CC(C)(C)C(F)(F)F)cccc43)c3cc(F)ccc3n12` [Example 210], in test [1], the IC50 came out at 5.88 nM. Further, the EC50 in test [2] (setting [3]) turned out to be 0.657 nM.
Consider `Cc1nnc2nc(N3CCOCc4c(C#Cc5cn[nH]c5)cccc43)c3c(F)cccc3n12` [Example 211, 6-((1H-pyrazol-4-yl)ethynyl)-1-(6-fluoro-1-methyl-[1,2,4]triazolo[4,3-a]quinazolin-5-yl)-1,2,3,5-tetrahydrobenzo[e][1,4]oxazepine], for which, in test [1], the IC50 is 6.35 nM. In addition, the EC50 in test [2] (setting [3]) amounted to 56.1 nM.
With `Cc1nnc2nc(N3CCCc4c(C#Cc5cn[nH]c5)cccc43)c3c(F)cccc3n12` [Example 212, 5-(5-((1H-pyrazol-4-yl)ethynyl)-3,4-dihydroquinolin-1(2H)-yl)-6-fluoro-1-methyl-[1,2,4]triazolo[4,3-a]quinazoline], the IC50 in test [1] was found to be 18.6 nM. Also, the EC50 in test [2] (setting [3]) was found to be 9.7 nM.
`Cc1nnc2nc(N3CCCc4c(C#Cc5ccc(C#N)nc5)cccc43)c3c(F)cccc3n12` [Example 213, 5-((1-(6-fluoro-1-methyl-[1,2,4]triazolo[4,3-a]quinazolin-5-yl)-1,2,3,4-tetrahydroquinolin-5-yl)ethynyl)picolinonitrile]: the IC50 in test [1] was 10 nM. Besides, in test [2] (setting [3]), the EC50 is 1.28 nM.
The corresponding values for `Cc1nnc2nc(N3CCOCc4c(C#Cc5ccnn5C)cccc43)c3c(F)cccc3n12` [Example 214, 1-(6-fluoro-1-methyl-[1,2,4]triazolo[4,3-a]quinazolin-5-yl)-6-((1-methyl-1H-pyrazol-5-yl)ethynyl)-1,2,3,5-tetrahydrobenzo[e][1,4]oxazepine] are 9.08 nM and 3.29 nM.
The corresponding values for `Cc1nnc2nc(N3CCCc4c(C#Cc5ccn[nH]5)cccc43)c3c(F)cccc3n12` [Example 215, 5-(5-((1H-pyrazol-5-yl)ethynyl)-3,4-dihydroquinolin-1(2H)-yl)-6-fluoro-1-methyl-[1,2,4]triazolo[4,3-a]quinazoline] are 25.2 nM and 9.95 nM.
The corresponding values for `Cc1cccc2c1c(N1CCOCc3c(C#CC4(C)CC4)cccc31)nc1nnc(C)n12` [Example 216, 1-(1,6-dimethyl-[1,2,4]triazolo[4,3-a]quinazolin-5-yl)-6-((1-methylcyclopropyl)ethynyl)-1,2,3,5-tetrahydrobenzo[e][1,4]oxazepine] are 24.3 nM and 5.42 nM.
Turning to `Cc1cccc2c1c(N1CCOCc3c(C#CC(C)(C)C#N)cccc31)nc1nnc(C)n12` [Example 217, 4-(1-(1,6-dimethyl-[1,2,4]triazolo[4,3-a]quinazolin-5-yl)-1,2,3,5-tetrahydrobenzo[e][1,4]oxazepin-6-yl)-2,2-dimethylbut-3-ynenitrile], in test [1], the IC50 worked out at 31.7 nM. Further, in test [2] (setting [3]), the half-maximal effective concentration (EC50) stood at 16 nM.
The corresponding values for `Cc1nnc2nc(N3CCOCc4c(C#Cc5cnn(C)c5)cccc43)c3c(F)cccc3n12` [Example 218, 1-(6-fluoro-1-methyl-[1,2,4]triazolo[4,3-a]quinazolin-5-yl)-6-((1-methyl-1H-pyrazol-4-yl)ethynyl)-1,2,3,5-tetrahydrobenzo[e][1,4]oxazepine] are 14.5 nM and 33.9 nM.
The corresponding values for `COc1cncc(C#Cc2cccc3c2CCCN3c2nc3nnc(C)n3c3ccc(F)cc23)c1` [Example 219] are 11.2 nM and 1.3 nM.
The corresponding values for `Cc1nnc2nc(N3CCCc4c(C#Cc5cnc(C(F)(F)F)nc5)cccc43)c3c(F)cccc3n12` [Example 220, 6-fluoro-1-methyl-5-(5-((2-(trifluoromethyl)pyrimidin-5-yl)ethynyl)-3,4-dihydroquinolin-1(2H)-yl)-[1,2,4]triazolo[4,3-a]quinazoline] are 21.8 nM and 0.346 nM.
For the compound `CCCCCc1cc(C2(C#Cc3cccc4c3CCCN4c3nc4nnc(C)n4c4cccc(F)c34)CC2)no1` [Example 221, 3-(1-((1-(6-fluoro-1-methyl-[1,2,4]triazolo[4,3-a]quinazolin-5-yl)-1,2,3,4-tetrahydroquinolin-5-yl)ethynyl)cyclopropyl)-5-pentylisoxazole], the IC50 in test [1] stood at 122 nM. For the same compound, the EC50 in test [2] (setting [3]) turned out to be 0.647 nM.
For the compound `COc1ccc(C#Cc2cccc3c2COCCN3c2nc3nnc(C)n3c3cccc(F)c23)cn1` [Example 222, 1-(6-fluoro-1-methyl-[1,2,4]triazolo[4,3-a]quinazolin-5-yl)-6-((6-methoxypyridin-3-yl)ethynyl)-1,2,3,5-tetrahydrobenzo[e][1,4]oxazepine], the IC50 in test [1] stood at 6.29 nM. Besides, the EC50 in test [2] (setting [3]) turned out to be 0.718 nM.
